Reference: PubChem BioAssay (NCI)
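Following 48 hours of exposure in 96-well plates, responses at five concentrations were used to interpolate endpoints linearly. Here, GI50 denotes the concentration required for 50% inhibition of growth. TGI: total growth inhibition.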

Key:
Test in all cases: DTP human tumour cell line panel, 48 h
OVCAR-3 ovarian = test system: OVCAR-3 ovarian
EKVX NSCLC = test system: EKVX NSCLC
CAKI-1 renal = test system: CAKI-1 renal
NCI-H522 lung = test system: NCI-H522 lung
OVCAR-4 ovarian = test system: OVCAR-4 ovarian
UACC-62 melanoma = test system: UACC-62 melanoma
SK-OV-3 ovarian = test system: SK-OV-3 ovarian
HOP-92 NSCLC = test system: HOP-92 NSCLC
UO-31 renal = test system: UO-31 renal
HCT-116 colon = test system: HCT-116 colon
SNB-75 CNS = test system: SNB-75 CNS
T-47D breast = test system: T-47D breast
BT-549 breast = test system: BT-549 breast
HCT-15 colon = test system: HCT-15 colon
OVCAR-5 ovarian = test system: OVCAR-5 ovarian
MDA-MB-435 = test system: MDA-MB-435
SK-MEL-28 melanoma = test system: SK-MEL-28 melanoma
LOX IMVI melanoma = test system: LOX IMVI melanoma
IGROV1 ovarian = test system: IGROV1 ovarian
SR leukemia = test system: SR leukemia
SNB-19 CNS = test system: SNB-19 CNS
OVCAR-8 ovarian = test system: OVCAR-8 ovarian
NCI-H23 lung = test system: NCI-H23 lung
PC-3 prostate = test system: PC-3 prostate
HCC-2998 colon = test system: HCC-2998 colon
786-0 renal = test system: 786-0 renal
NCI/ADR-RES ovarian = test system: NCI/ADR-RES ovarian
COLO 205 colon = test system: COLO 205 colon
HS 578T breast = test system: HS 578T breast
MDA-MB-468 breast = test system: MDA-MB-468 breast
TK-10 renal = test system: TK-10 renal
DU-145 prostate = test system: DU-145 prostate
RXF 393 renal = test system: RXF 393 renal
NCI-H460 lung = test system: NCI-H460 lung
M14 melanoma = test system: M14 melanoma
RPMI-8226 leukemia = test system: RPMI-8226 leukemia
SW-620 colon = test system: SW-620 colon
MOLT-4 leukemia = test system: MOLT-4 leukemia
MDA-MB-231 breast = test system: MDA-MB-231 breast
SF-268 CNS = test system: SF-268 CNS
SF-295 CNS = test system: SF-295 CNS
CCRF-CEM leukemia = test system: CCRF-CEM leukemia
HOP-62 NSCLC = test system: HOP-62 NSCLC
K-562 leukemia = test system: K-562 leukemia
MALME-3M melanoma = test system: MALME-3M melanoma
HL-60(TB) leukemia = test system: HL-60(TB) leukemia
SN12C renal = test system: SN12C renal
HT29 colon = test system: HT29 colon
SF-539 CNS = test system: SF-539 CNS
A549 NSCLC = test system: A549 NSCLC
A498 renal = test system: A498 renal
U251 CNS = test system: U251 CNS
SK-MEL-2 melanoma = test system: SK-MEL-2 melanoma
UACC-257 melanoma = test system: UACC-257 melanoma
ACHN renal = test system: ACHN renal
SK-MEL-5 melanoma = test system: SK-MEL-5 melanoma
NCI-H226 lung = test system: NCI-H226 lung
MCF7 breast = test system: MCF7 breast
KM12 colon = test system: KM12 colon

Compound: COc1cc2c(c(OC)c1OC)C(=O)CC(c1cccc(NC(=O)c3cc(NC(=O)[C@H](C)N)ccc3Cl)c1)O2 (stereo partly drawn)
- GI50 (OVCAR-3 ovarian): 17.5 µM
- TGI (OVCAR-3 ovarian): 46.7 µM
- GI50 (EKVX NSCLC): 17.2 µM
- TGI (EKVX NSCLC): 35 µM
- GI50 (CAKI-1 renal): 32.7 µM
- TGI (CAKI-1 renal): > 100 µM
- GI50 (NCI-H522 lung): 11.3 µM
- TGI (NCI-H522 lung): 26 µM
- GI50 (OVCAR-4 ovarian): 15.6 µM
- TGI (OVCAR-4 ovarian): 47 µM
- GI50 (UACC-62 melanoma): 12.3 µM
- TGI (UACC-62 melanoma): 24.9 µM
- GI50 (SK-OV-3 ovarian): 18.3 µM
- TGI (SK-OV-3 ovarian): 42.2 µM
- GI50 (HOP-92 NSCLC): 14.5 µM
- TGI (HOP-92 NSCLC): 48.9 µM
- GI50 (UO-31 renal): 12 µM
- TGI (UO-31 renal): 24.7 µM
- GI50 (HCT-116 colon): 17.5 µM
- TGI (HCT-116 colon): 35.6 µM
- GI50 (SNB-75 CNS): 13.3 µM
- TGI (SNB-75 CNS): 65.1 µM
- GI50 (T-47D breast): 8.07 µM
- TGI (T-47D breast): 29 µM
- GI50 (BT-549 breast): 15 µM
- TGI (BT-549 breast): 32 µM
- GI50 (HCT-15 colon): 12 µM
- TGI (HCT-15 colon): 26.9 µM
- GI50 (OVCAR-5 ovarian): 18.3 µM
- TGI (OVCAR-5 ovarian): 34.6 µM
- GI50 (MDA-MB-435): 7.81 µM
- TGI (MDA-MB-435): 21.4 µM
- GI50 (SK-MEL-28 melanoma): 16.6 µM
- TGI (SK-MEL-28 melanoma): 30.2 µM
- GI50 (LOX IMVI melanoma): 14.5 µM
- TGI (LOX IMVI melanoma): 29.6 µM
- GI50 (IGROV1 ovarian): 16.6 µM
- TGI (IGROV1 ovarian): 32.9 µM
- GI50 (SR leukemia): 5.45 µM
- TGI (SR leukemia): 39.2 µM
- GI50 (SNB-19 CNS): 15.8 µM
- TGI (SNB-19 CNS): 29.2 µM
- GI50 (OVCAR-8 ovarian): 16.1 µM
- TGI (OVCAR-8 ovarian): 41.7 µM
- GI50 (NCI-H23 lung): 15.6 µM
- TGI (NCI-H23 lung): 31.2 µM
- GI50 (PC-3 prostate): 17.2 µM
- TGI (PC-3 prostate): 69.5 µM
- GI50 (HCC-2998 colon): 16.9 µM
- TGI (HCC-2998 colon): 31.3 µM
- GI50 (786-0 renal): 19.1 µM
- TGI (786-0 renal): 36.7 µM
- GI50 (NCI/ADR-RES ovarian): 16.2 µM
- TGI (NCI/ADR-RES ovarian): 47 µM
- GI50 (COLO 205 colon): 17.1 µM
- TGI (COLO 205 colon): 33.2 µM
- GI50 (HS 578T breast): 20 µM
- TGI (HS 578T breast): 59.3 µM
- GI50 (MDA-MB-468 breast): 13.5 µM
- TGI (MDA-MB-468 breast): 28.5 µM
- GI50 (TK-10 renal): 19.8 µM
- TGI (TK-10 renal): 42.7 µM
- GI50 (DU-145 prostate): 17.5 µM
- TGI (DU-145 prostate): 34.5 µM
- GI50 (RXF 393 renal): 18.6 µM
- TGI (RXF 393 renal): 37.1 µM
- GI50 (NCI-H460 lung): 15.3 µM
- TGI (NCI-H460 lung): 30.6 µM
- GI50 (M14 melanoma): 15.5 µM
- TGI (M14 melanoma): 32.6 µM
- GI50 (RPMI-8226 leukemia): 7.29 µM
- TGI (RPMI-8226 leukemia): 51.7 µM
- GI50 (SW-620 colon): 15.7 µM
- TGI (SW-620 colon): 30.2 µM
- GI50 (MOLT-4 leukemia): 11 µM
- TGI (MOLT-4 leukemia): 34.6 µM
- GI50 (MDA-MB-231 breast): 14.6 µM
- TGI (MDA-MB-231 breast): 28.5 µM
- GI50 (SF-268 CNS): 18 µM
- TGI (SF-268 CNS): 42.8 µM
- GI50 (SF-295 CNS): 16.3 µM
- TGI (SF-295 CNS): 29.9 µM
- GI50 (CCRF-CEM leukemia): 18.5 µM
- TGI (CCRF-CEM leukemia): 65 µM
- GI50 (HOP-62 NSCLC): 15.1 µM
- TGI (HOP-62 NSCLC): 30.6 µM
- GI50 (K-562 leukemia): 7.31 µM
- TGI (K-562 leukemia): 91.9 µM
- GI50 (MALME-3M melanoma): 14.2 µM
- TGI (MALME-3M melanoma): 27.7 µM
- GI50 (HL-60(TB) leukemia): 18.8 µM
- TGI (HL-60(TB) leukemia): 37.5 µM
- GI50 (SN12C renal): 14.1 µM
- TGI (SN12C renal): 30.9 µM
- GI50 (HT29 colon): 18.6 µM
- TGI (HT29 colon): 37.2 µM
- GI50 (SF-539 CNS): 15.5 µM
- TGI (SF-539 CNS): 28.8 µM
- GI50 (A549 NSCLC): 15.9 µM
- TGI (A549 NSCLC): 33.3 µM
- GI50 (A498 renal): 26 µM
- TGI (A498 renal): 90.5 µM
- GI50 (U251 CNS): 13.9 µM
- TGI (U251 CNS): 28 µM
- GI50 (SK-MEL-2 melanoma): 14.8 µM
- TGI (SK-MEL-2 melanoma): 33.2 µM
- GI50 (UACC-257 melanoma): 14.4 µM
- TGI (UACC-257 melanoma): 29.5 µM
- GI50 (ACHN renal): 15.9 µM
- TGI (ACHN renal): 31 µM
- GI50 (SK-MEL-5 melanoma): 15.5 µM
- TGI (SK-MEL-5 melanoma): 29.4 µM
- GI50 (NCI-H226 lung): 16.8 µM
- TGI (NCI-H226 lung): 38.6 µM
- GI50 (MCF7 breast): 12.9 µM
- TGI (MCF7 breast): 26.8 µM
- GI50 (KM12 colon): 19.3 µM
- TGI (KM12 colon): 37.9 µM
